Experimental data: patent US10752591B2, “18-20 member bi-polycyclic compounds” (Haro Pharmaceutical Inc., priority 2014, dated 2020)

How the values were obtained:
[1] = system: BE-2C neuroblastoma cells; experiment: cytotoxicity, cell survival (CellTiterGlo) in BE-2C; type: cell-based; conditions: BE-2C cells
Description: (§1) The cytotoxicity of compounds was examined and directly compared to compound 17, by measuring cell survival of clonal tumor cell lines IMR-32, BE2C (neuroblastoma), as well as MDA-MB-231, BT20, HCC-38 (Basal) and MCF7 (luminal) breast cancer cells (ATCC). Cells were cultured in phenol red-free RPMI medium supplemented with 10% FBS and 1 mM Ala-Glu. Typically, 10,000-20,000 cells/well were plated in a 96 well plate (Costar 3197). Cells were exposed to compounds or vehicle (1% DMSO final). Cells were maintained in the presence of compound for four or five days. Media and compounds were renewed every 48 hours. Cell survival was measured using the luminescence CellTiterGlo kit (Promega Corporation) and expressed as relative light unit as fold over DMSO.

[2] = system: MDA-MB-231 breast cancer cells; experiment: cytotoxicity, cell survival (CellTiterGlo) in MDA-MB-231; type: cell-based; conditions: MDA-MB-231 cells
Description: as §1

## CC1(C)CCC(C)(C)c2cc(-c3cc4cc(C(=O)NO)ccc4[nH]3)ccc21 [Compound 13]
[1]
  cytotoxic potency compared with compound 17, SAHA, Ricolinistat: more potent than compound 17, SAHA or Ricolinistat
[2]
  cytotoxic potency compared with compound 17, SAHA, Ricolinistat: more potent than compound 17, SAHA or Ricolinistat
